The target of one data set is Cauliflower pol α (Brassica oleracea var. botrytis, UniProt A0A0D3D890). Briefly: DNA polymerase activity inhibition. The data set is classed as biochemical. The text has this: (§1) Pol α was purified from calf thymus by immunoaffinity column chromatography as described by Tamai et al.. Recombinant rat pol β was purified from Escherichia coli JMpβ5 as described by Date et al.. The human pol γ catalytic gene was cloned into pFastBac. Histidine-tagged enzyme was expressed using the BACTO-BAC HT Baculovirus Expression System according to the manufacturer's instructions (Life Technologies, Frederick, MD, USA) and purified using ProBound resin (Invitrogen Japan, Tokyo Japan). Human pols δ and ε were purified by nuclear fractionation of human peripheral blood cancer cells (Molt-4) using the second subunit of pol δ and ε-conjugated affinity column chromatography, respectively. A truncated form of human pol η (residues 1–511) tagged with His6 at its C-terminal was expressed in E. coli cells and purified as described by Kusumoto et al.. A recombinant mouse pol ι tagged with His6 at its C-terminal was expressed and purified by Ni–NTA column chromatography. A truncated form of pol κ (residues 1–560) with 6× His-tags attached at the C-terminus was overexpressed in E. coli and purified as described by Ohashi et al.. Recombinant human His-pol λ was overexpressed and purified according to a method described by Shimazaki et al.. Recombinant human His-pol μ was overexpressed in E. coli BL21 and purified using Glutathione Sepharose 4B (GE Healthcare Bio-Science Corp., Piscataway, NJ, USA) column chromatography according to the method for pol λ preparation by Shimazaki et al.. Pol α from a higher plant, cauliflower, was purified from the inflorescence structure according to the methods outlined by Sakaguchi et al.. Recombinant rice (Oryza sativa L. cv. Nipponbare) pol λ tagged with His6 at the C-terminus was expressed in E. coli and purified as described by Uchiyama et al.. Calf TdT, Taq pol, T4 pol, T7 RNA polymerase, and T4 polynucleotide kinase were purchased from Takara Bio Inc. (Kyoto, Japan). The Klenow fragment of pol I from E. coli was purchased from Worthington Biochemical Corp. (Freehold, NJ, USA). Bovine pancreas deoxyribonuclease I was obtained from Stratagene Cloning Systems (La Jolla, CA, USA).
Sequence of Cauliflower pol α (A0A0D3D890 entry or part of it): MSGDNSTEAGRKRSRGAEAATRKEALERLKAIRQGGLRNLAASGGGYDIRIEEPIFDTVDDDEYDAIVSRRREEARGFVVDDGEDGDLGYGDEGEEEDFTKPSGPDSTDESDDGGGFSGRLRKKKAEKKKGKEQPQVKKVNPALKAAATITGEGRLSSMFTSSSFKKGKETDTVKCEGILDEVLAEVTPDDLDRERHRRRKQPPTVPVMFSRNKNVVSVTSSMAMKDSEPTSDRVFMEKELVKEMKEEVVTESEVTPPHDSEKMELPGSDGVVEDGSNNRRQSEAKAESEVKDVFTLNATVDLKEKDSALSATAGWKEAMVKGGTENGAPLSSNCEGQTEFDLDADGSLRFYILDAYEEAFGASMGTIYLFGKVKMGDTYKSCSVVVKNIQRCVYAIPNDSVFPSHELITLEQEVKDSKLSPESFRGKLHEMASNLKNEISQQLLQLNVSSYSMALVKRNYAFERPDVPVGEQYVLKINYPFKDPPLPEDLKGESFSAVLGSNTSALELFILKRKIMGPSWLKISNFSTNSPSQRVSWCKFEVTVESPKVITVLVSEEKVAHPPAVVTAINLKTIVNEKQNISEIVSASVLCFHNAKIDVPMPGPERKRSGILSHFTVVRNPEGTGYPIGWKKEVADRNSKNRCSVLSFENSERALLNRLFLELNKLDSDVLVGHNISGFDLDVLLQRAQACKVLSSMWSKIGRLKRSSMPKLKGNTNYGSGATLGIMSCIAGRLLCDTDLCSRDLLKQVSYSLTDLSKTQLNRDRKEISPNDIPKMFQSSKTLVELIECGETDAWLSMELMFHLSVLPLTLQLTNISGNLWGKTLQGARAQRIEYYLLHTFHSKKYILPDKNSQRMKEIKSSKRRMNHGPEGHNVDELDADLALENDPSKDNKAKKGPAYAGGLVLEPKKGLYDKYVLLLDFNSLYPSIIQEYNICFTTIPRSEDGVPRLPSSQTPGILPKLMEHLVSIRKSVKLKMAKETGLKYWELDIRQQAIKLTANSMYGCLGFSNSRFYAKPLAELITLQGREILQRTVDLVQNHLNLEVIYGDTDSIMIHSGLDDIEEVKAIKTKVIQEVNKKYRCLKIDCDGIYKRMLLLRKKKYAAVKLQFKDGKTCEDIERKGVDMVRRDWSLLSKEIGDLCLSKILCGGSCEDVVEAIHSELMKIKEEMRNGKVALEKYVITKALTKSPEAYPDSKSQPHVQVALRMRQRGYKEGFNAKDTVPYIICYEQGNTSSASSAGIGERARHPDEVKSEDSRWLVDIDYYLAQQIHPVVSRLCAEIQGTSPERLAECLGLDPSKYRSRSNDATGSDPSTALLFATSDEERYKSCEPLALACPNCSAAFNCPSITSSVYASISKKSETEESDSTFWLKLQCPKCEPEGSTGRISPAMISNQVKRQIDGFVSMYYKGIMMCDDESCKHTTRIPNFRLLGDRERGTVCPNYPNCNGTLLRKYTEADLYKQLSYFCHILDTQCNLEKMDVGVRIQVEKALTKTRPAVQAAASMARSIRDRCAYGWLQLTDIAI
(§2) The reaction mixtures for calf pol α, rat pol β, plant pol α, and prokaryotic pols have been described previously, [35]; those for pol γ as well as pols δ and ε were previously described by Umeda et al. and Ogawa et al., respectively. Those for pols η, ι, and κ were the same as for pol α, and those for pols λ and μ were the same as for pol β. For the pol reactions, poly(dA)/oligo(dT)18 (A/T, 2/1) and dTTP were used as the DNA template-primer substrate and nucleotide (dNTP; 2′-deoxynucleoside-5′-triphosphate) substrate, respectively. For the TdT reactions, oligo(dT)18 (3′-OH) and dTTP were used as the DNA primer substrate and nucleotide substrate, respectively.
(§3) The chemically synthesized 5-O-acyl plumbagins (2a–j) were dissolved in distilled dimethyl sulfoxide (DMSO) to various concentrations and sonicated for 30 s. Subsequently, 4 µL aliquots were mixed with 16 µL of each enzyme (0.05 units) in 50 mM Tris-HCl at pH 7.5, containing 1 mM dithiothreitol, 50% glycerol (by vol), and 0.1 mM ethylenediaminetetraacetic acid and held at 0°C for 10 min. These inhibitor-enzyme mixtures in 8 µL volumes were next added to 16 µL of enzyme standard reaction mixture and incubated at 37°C for 60 min, except for Taq pol, which was incubated at 74°C for 60 min. Activity without inhibitor was considered 100%, and the relative activity was determined for each inhibitor concentration. One unit of pol activity was defined as the amount of each enzyme that catalyzed the incorporation of 1 nmol dTTP into synthetic DNA template primers in 60 min, at 37°C, and under standard reaction conditions, [35].

Another data set concerns the target T1, Human pol η (Homo sapiens, UniProt Q9Y253).
T1 construct: A truncated form of human pol η (residues 1–511) tagged with His6 at its C-terminal; His6 (C); made in house; host or cells: E. coli
Kind of data set: DNA polymerase activity inhibition. The data set is classed as biochemical. To be noted: 0.05 units enzyme; mean ± SD (n = 3).
Text: as §1, §2, §3

Another data set has as its target T2, Taq pol (Thermus aquaticus, UniProt P19821).
T2 construct: purchased Takara Bio Inc. (Kyoto, Japan)
Kind of data set: DNA polymerase activity inhibition. The data set is classed as biochemical.
Text: as §1, §2, §3

For another data set, the target named is T3, Human pol κ (Homo sapiens, UniProt Q9UBT6).
T3 construct: A truncated form of pol κ (residues 1–560) with 6× His-tags attached at the C-terminus; 6× His (C); made in house; host or cells: E. coli
T3 sequence (Q9UBT6 1-560): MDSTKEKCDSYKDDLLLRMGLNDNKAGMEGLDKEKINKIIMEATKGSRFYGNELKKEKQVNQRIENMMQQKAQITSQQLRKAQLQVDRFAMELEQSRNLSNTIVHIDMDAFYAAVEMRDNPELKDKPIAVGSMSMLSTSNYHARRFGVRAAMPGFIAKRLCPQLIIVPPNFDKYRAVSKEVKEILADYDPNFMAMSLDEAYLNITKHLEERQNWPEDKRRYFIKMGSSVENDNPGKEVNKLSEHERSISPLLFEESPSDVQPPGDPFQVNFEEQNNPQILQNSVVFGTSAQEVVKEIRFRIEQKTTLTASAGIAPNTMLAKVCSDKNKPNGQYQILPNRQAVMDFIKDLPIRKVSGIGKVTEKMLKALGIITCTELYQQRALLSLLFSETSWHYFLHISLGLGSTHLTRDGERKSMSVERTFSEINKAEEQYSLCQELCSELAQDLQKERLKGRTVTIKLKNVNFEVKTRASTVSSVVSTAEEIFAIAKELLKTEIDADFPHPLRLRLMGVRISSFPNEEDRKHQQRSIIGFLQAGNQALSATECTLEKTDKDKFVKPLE
Kind of data set: DNA polymerase activity inhibition. The following applies: 0.05 units enzyme; mean ± SD (n = 3). The data set is classed as biochemical.
Text: as §1, §2, §3

The target of another data set is T4, Human pol γ (Homo sapiens, UniProt P54098).
T4 construct: His tag; made in house
T4 sequence (P54098 whole entry): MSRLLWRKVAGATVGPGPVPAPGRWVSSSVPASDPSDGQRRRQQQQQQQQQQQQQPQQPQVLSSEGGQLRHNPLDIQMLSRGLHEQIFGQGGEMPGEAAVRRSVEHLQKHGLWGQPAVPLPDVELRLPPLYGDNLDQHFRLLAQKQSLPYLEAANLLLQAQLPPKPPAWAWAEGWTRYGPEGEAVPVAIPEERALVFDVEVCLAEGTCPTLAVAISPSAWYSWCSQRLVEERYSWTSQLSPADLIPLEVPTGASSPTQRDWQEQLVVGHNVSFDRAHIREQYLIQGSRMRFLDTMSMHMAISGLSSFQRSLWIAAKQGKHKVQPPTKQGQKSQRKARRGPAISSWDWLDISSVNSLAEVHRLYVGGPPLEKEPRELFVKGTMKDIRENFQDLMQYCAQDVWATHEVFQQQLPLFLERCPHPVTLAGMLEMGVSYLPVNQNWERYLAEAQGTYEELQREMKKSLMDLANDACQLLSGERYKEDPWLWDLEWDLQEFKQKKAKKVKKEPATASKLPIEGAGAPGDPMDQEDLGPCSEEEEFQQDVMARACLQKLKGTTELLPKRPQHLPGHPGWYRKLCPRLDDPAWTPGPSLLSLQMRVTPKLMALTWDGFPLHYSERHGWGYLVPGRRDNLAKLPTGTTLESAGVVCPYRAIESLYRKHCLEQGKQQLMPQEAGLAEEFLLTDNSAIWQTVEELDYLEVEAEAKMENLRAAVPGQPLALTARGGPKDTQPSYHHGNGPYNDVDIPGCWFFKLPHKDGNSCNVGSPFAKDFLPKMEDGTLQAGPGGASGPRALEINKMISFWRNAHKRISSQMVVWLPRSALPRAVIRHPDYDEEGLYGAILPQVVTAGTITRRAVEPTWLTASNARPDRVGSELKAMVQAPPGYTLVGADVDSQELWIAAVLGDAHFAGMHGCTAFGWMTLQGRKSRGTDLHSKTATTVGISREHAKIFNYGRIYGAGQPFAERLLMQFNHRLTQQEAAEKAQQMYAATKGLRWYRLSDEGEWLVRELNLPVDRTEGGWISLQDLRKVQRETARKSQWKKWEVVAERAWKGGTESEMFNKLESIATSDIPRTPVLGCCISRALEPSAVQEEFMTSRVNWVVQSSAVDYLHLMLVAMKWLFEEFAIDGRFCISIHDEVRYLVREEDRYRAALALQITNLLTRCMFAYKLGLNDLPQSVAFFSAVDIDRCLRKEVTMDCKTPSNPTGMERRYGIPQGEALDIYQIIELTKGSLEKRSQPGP
Briefly: DNA polymerase activity inhibition. The data set is classed as biochemical.
Text: as §1, §2, §3

In another data set the target is T5, Rice pol λ (Oryza sativa subsp. japonica, UniProt Q67VC8).
T5 construct: His6 (C); made in house; host or cells: E. coli
T5 sequence (Q67VC8 whole entry): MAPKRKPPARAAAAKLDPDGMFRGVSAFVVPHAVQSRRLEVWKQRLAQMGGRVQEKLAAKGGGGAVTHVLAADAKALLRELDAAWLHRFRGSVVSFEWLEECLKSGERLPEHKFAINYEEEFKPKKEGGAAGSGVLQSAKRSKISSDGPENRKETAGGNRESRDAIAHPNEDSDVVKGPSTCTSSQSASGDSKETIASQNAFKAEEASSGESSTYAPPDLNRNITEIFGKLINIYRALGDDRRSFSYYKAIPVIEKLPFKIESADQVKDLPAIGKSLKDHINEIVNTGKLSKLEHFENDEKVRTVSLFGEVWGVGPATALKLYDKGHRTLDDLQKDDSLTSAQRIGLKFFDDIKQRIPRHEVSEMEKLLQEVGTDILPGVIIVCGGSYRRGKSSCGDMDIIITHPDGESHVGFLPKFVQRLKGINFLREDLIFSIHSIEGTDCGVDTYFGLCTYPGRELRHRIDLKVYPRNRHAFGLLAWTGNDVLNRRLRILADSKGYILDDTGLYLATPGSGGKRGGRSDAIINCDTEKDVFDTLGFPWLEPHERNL
Briefly: DNA polymerase activity inhibition. The data set is classed as biochemical, rice (Oryza sativa L. cv. Nipponbare). The text has this: Pol α was purified from calf thymus by immunoaffinity column chromatography as described by Tamai et al.. Recombinant rat pol β was purified from Escherichia coli JMpβ5 as described by Date et al.. The human pol γ catalytic gene was cloned into pFastBac. Histidine-tagged enzyme was expressed using the BACTO-BAC HT Baculovirus Expression System according to the manufacturer's instructions (Life Technologies, Frederick, MD, USA) and purified using ProBound resin (Invitrogen Japan, Tokyo Japan). Human pols δ and ε were purified by nuclear fractionation of human peripheral blood cancer cells (Molt-4) using the second subunit of pol δ and ε-conjugated affinity column chromatography, respectively. A truncated form of human pol η (residues 1–511) tagged with His6 at its C-terminal was expressed in E. coli cells and purified as described by Kusumoto et al.. A recombinant mouse pol ι tagged with His6 at its C-terminal was expressed and purified by Ni–NTA column chromatography. […]
The chemically synthesized 5-O-acyl plumbagins (2a–j) were dissolved in distilled dimethyl sulfoxide (DMSO) to various concentrations and sonicated for 30 s. […] Activity without inhibitor was considered 100%, and the relative activity was determined for each inhibitor concentration. […]

A short description of data set [1]: Stability under basic conditions (Triton B, UV-vis). It is filed as physicochemical. The following applies: 1 equivalent Triton B in 1,4-dioxane and MeOH, 1.1×10^−3 M, 25°C. The method, then:
A 2.2×10^−2 M solution of Triton B in MeOH was added to a 2.2×10^−2 M solution of each sample in 1,4-dioxane. Then, the mixture was diluted with 1,4-dioxane to a concentration of 1.1×10^−3 M. Then, the stability of each compound was monitored by UV-vis spectroscopy. UV-vis spectra were measured at 25°C on a UV-vis spectrophotometer (JASCO V-650, Tokyo, Japan). For comparison, UV-vis spectra of 1.1×10^−3 M solution of C18:1-acyl plumbagin (2f), and C18:1-acyl juglone (5f) in 1,4-dioxane and MeOH (19/1, v/v) were measured.

The results in this text go back to PMC3919815, “Anti-Tumor Effects of Novel 5-O-Acyl Plumbagins Based on the Inhibition of Mammalian DNA Replicative Polymerase Activity” (PLoS ONE, 2014).

Structures are written as SMILES.

T2 sequence (P19821 whole entry): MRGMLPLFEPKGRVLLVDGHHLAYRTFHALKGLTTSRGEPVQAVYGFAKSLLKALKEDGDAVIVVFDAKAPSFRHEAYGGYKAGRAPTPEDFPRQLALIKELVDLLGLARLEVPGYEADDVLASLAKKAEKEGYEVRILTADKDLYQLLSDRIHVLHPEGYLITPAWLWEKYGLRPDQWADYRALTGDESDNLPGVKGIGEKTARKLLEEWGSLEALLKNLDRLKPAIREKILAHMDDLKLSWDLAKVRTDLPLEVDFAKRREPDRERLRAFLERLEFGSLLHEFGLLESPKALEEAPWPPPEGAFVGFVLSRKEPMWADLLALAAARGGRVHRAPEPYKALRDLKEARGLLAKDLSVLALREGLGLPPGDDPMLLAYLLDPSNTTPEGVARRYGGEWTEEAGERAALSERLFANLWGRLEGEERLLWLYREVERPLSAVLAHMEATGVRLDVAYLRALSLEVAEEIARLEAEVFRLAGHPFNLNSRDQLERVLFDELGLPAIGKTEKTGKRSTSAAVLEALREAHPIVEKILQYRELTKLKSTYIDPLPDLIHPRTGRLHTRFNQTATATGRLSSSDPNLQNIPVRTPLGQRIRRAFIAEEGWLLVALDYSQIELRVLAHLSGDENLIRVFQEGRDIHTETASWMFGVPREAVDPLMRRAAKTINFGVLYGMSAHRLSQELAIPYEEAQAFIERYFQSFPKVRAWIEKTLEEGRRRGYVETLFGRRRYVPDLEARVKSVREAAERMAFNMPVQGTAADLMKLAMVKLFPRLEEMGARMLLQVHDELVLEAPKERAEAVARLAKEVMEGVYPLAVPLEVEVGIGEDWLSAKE
T1 sequence (Q9Y253 1-511): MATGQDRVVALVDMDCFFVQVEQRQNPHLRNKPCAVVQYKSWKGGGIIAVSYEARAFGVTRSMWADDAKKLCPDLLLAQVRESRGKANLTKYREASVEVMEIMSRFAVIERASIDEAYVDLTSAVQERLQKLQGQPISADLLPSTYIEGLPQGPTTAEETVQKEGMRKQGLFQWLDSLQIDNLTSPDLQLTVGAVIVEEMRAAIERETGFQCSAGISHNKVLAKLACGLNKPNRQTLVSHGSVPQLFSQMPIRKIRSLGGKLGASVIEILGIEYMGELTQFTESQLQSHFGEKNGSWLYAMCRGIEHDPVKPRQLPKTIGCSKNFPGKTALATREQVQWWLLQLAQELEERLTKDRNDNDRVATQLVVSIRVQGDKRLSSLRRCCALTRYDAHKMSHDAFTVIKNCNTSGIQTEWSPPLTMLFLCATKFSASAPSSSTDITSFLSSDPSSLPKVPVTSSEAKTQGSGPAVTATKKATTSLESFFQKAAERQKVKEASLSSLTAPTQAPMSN

The term IC50 denotes the concentration needed to halve the response being measured. A lower IC50 goes with higher potency. For the compound `CCCCCCCC/C=C\CCCCCCCC(=O)Oc1cccc2c1C(=O)C=C(C)C2=O` [2f, 5-O-oleoyl-2-methyl-1,4-naphthoquinone], the “effect on enzyme activity (in words)” value at Cauliflower pol α, on Taq pol and on Rice pol λ was “had no effect” each time. Moreover, the half-maximal inhibitory concentration (IC50) at Human pol η is 7.9 ± 0.42 µM; on Taq pol (0.05 units enzyme, 74°C), more than 100 µM; against Human pol κ, 7.6 ± 0.41 µM; at Human pol γ (0.05 units enzyme, mean ± SD (n = 3)), 4.5 ± 0.4 µM; on Rice pol λ (0.05 units enzyme) it was more than 100 µM. Further, on Human pol γ (10 µM compound, Fig. 4), the “inhibition of pol γ relative activity (in words)” value is reported as “strongest inhibition”. For the same compound, in data set [1], the “stability under basic conditions (UV spectra)” value was “Almost no changes in UV spectra”.
